The values that follow come from ChEMBL document CHEMBL1201862, “PubChem BioAssay data set” (2004).

Among the test systems are MDA-N; RXF 393; PC-3; DU-145; CAKI-1; SW-620; Hs-578T; M14; SK-MEL-5; HT-29; SK-OV-3; UACC-257; MCF7; TK-10; ACHN; SF-295; HL-60; NCI-H522; SN12C; MDA-MB-435.
Common to all, as to test: inhibition of tumour cell growth, NCI panel, 48 h

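Exposure lasted 48 hours, with cells grown in 96-well plates and compounds tested at five concentrations. GI50 = concentration required for 50% inhibition of growth.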 The source made the active and inactive calls. Cut-off read from the data, not from the text of the source: active = GI50 up to about 1.1 µM and inactive = higher.

On to `Cc1cc2c(=O)c3ccccc3oc2c(C#N)c1C`, for which the GI50 in the test on MDA-N is > 100 µM (inactive); in the test with RXF 393 it was > 100 µM (inactive); with PC-3, 40.3 µM (inactive); in the test on DU-145 it was > 100 µM (inactive); in the test on CAKI-1 it was > 100 µM (inactive); in the test on SW-620, > 100 µM (inactive). For the same molecule, the GI50 in the test on Hs-578T is > 100 µM (inactive); with M14, > 100 µM (inactive); in the test with SK-MEL-5, > 100 µM (inactive); with HT-29, 43.6 µM (inactive); in the test on SK-OV-3 it was > 100 µM (inactive); with UACC-257, > 100 µM (inactive). The GI50 with MCF7, in the test with TK-10, in the test on ACHN, in the test with SF-295 and with HL-60 was > 100 µM (inactive) each time.

For the molecule `Nc1ccc2nc3n(c2c1)C(=O)c1ccccc1-3`, the GI50 with MDA-N, in the test on RXF 393, in the test on PC-3, with NCI-H522, in the test on DU-145 and in the test on CAKI-1 was > 100 µM (inactive) each time. For the same molecule, the GI50 with SW-620, in the test on SN12C, in the test with M14, in the test on SK-MEL-5, in the test on HT-29 and in the test on SK-OV-3 was > 100 µM (inactive) in each case. In addition, the GI50 with UACC-257, in the test with MCF7, in the test with TK-10, in the test on ACHN, in the test with SF-295 and in the test on HL-60 was > 100 µM (inactive) each time.

As for `NC(=O)CCC(NC(=O)c1c2ccccc2nc2ccccc12)C(=O)O` (configuration not stated), the GI50 in the test with MDA-N, in the test on MDA-MB-435, in the test with PC-3, in the test with NCI-H522, in the test with DU-145 and in the test with CAKI-1 was > 100 µM (inactive) each time. Besides, the GI50 in the test with SW-620, in the test with SN12C, in the test on M14, in the test with SK-MEL-5, with HT-29 and with SK-OV-3 was > 100 µM (inactive) each time. The GI50 in the test on UACC-257, in the test with MCF7, in the test on TK-10, in the test on ACHN and in the test with SF-295 was > 100 µM (inactive) each time.

Turning to `OCCCCCCCCCCCOc1ccc(C2OCC3(CO2)COC(c2ccc(OCCCCCCCCCCCO)cc2)OC3)cc1` (configuration not stated), the GI50 in the test on MDA-N, in the test with MDA-MB-435, in the test with PC-3, in the test with DU-145, with CAKI-1 and with SW-620 was > 50 µM (inactive) each time. Further, the GI50 with Hs-578T, in the test on SN12C, with M14, in the test on SK-MEL-5, in the test with HT-29 and in the test with SK-OV-3 was > 50 µM (inactive) in each case. Besides, the GI50 with UACC-257, with MCF7, in the test on TK-10, with ACHN and in the test with SF-295 was > 50 µM (inactive) in each case.

On to `COc1ccc(OC)c(/C=N/N=C2\C(=O)Nc3c(Cl)cc(Cl)cc32)c1`, for which the GI50 was 20 µM (inactive) in the test on MDA-N; 66.2 µM (inactive) in the test on RXF 393; 32.7 µM (inactive) in the test on MDA-MB-435; 38.8 µM (inactive) in the test with PC-3; 71.3 µM (inactive) in the test with CAKI-1; 43.4 µM (inactive) in the test with SW-620. Further, the GI50 in the test with Hs-578T was 20.4 µM (inactive); in the test with SN12C, > 100 µM (inactive); in the test with M14, 68.4 µM (inactive); in the test on SK-MEL-5 it was 56.1 µM (inactive); in the test on HT-29, 63.4 µM (inactive); with SK-OV-3 it was 72.6 µM (inactive). In addition, the GI50 in the test on UACC-257 is > 100 µM (inactive); in the test with MCF7, 46.1 µM (inactive); in the test on TK-10 it was > 100 µM (inactive); in the test on ACHN it was 52.4 µM (inactive); with SF-295 it was 32.1 µM (inactive); with HL-60, 43.8 µM (inactive).

For `[N-]=[N+]=CC(=O)OC1CCc2ccccc21` (configuration not stated), the GI50 in the test with MDA-N was > 100 µM (inactive); with RXF 393, 60.3 µM (inactive); in the test on MDA-MB-435, > 100 µM (inactive); in the test with PC-3, > 100 µM (inactive); in the test with NCI-H522, > 100 µM (inactive); with DU-145, 12.8 µM (inactive). The GI50 with CAKI-1 was 26 µM (inactive); with SW-620 it was > 100 µM (inactive); with SN12C it was 42.5 µM (inactive); in the test with SK-MEL-5, 85.1 µM (inactive); with HT-29, > 100 µM (inactive); in the test with SK-OV-3 it was > 100 µM (inactive). Further, the GI50 was > 100 µM (inactive) in the test with UACC-257; 71.1 µM (inactive) in the test on MCF7; 59.6 µM (inactive) in the test on TK-10; 9.95 µM (inactive) in the test with ACHN; 40.8 µM (inactive) with SF-295; 42.3 µM (inactive) in the test with HL-60.

As to `CCOP(=O)(OCC)/C(C#N)=C/c1cccn1CC(C)C`, the GI50 in the test on MDA-N is > 100 µM (inactive); in the test on RXF 393, > 100 µM (inactive); with MDA-MB-435 it was > 100 µM (inactive); in the test with PC-3 it was 93.3 µM (inactive); in the test with NCI-H522, 81.8 µM (inactive); with DU-145, > 100 µM (inactive). In addition, the GI50 in the test on CAKI-1 is > 100 µM (inactive); in the test on SW-620, > 100 µM (inactive); in the test on SN12C, > 100 µM (inactive); with M14 it was > 100 µM (inactive); with SK-MEL-5, 40.9 µM (inactive); in the test on HT-29, > 100 µM (inactive). Moreover, the GI50 in the test on SK-OV-3, with UACC-257, with MCF7, in the test on TK-10, in the test on ACHN and with SF-295 was > 100 µM (inactive) throughout.

For the molecule `CC1(C)C2CCC1(CC(=O)O)C(Cl)C2` (configuration not stated), the GI50 with RXF 393, in the test with MDA-MB-435, with PC-3, with NCI-H522, with DU-145 and in the test with CAKI-1 was > 100 µM (inactive) each time. The GI50 in the test with SW-620, in the test on Hs-578T, in the test on SN12C, with M14, in the test with SK-MEL-5 and in the test with HT-29 was > 100 µM (inactive) in each case. Also, the GI50 in the test with SK-OV-3, in the test with UACC-257, with MCF7, in the test with TK-10, with ACHN and in the test on SF-295 was > 100 µM (inactive) each time. Moreover, the GI50 in the test with HL-60 is > 100 µM (inactive).

Turning to `CC(C)(C)O/C=C1/C(=O)OC2C[C@@H](O[Si](C)(C)C(C)(C)C)CC12` (some centres not stated), the GI50 in the test with MDA-N was > 100 µM (inactive); with RXF 393, 0.759 µM (active); with MDA-MB-435, 77.6 µM (inactive); in the test on PC-3 it was 45.5 µM (inactive); in the test with NCI-H522, 27.6 µM (inactive); with DU-145 it was 29.4 µM (inactive). Moreover, the GI50 in the test on CAKI-1 was > 100 µM (inactive); in the test with SW-620, 54.3 µM (inactive); in the test on SN12C, 34.7 µM (inactive); in the test with M14, 54.6 µM (inactive); with SK-MEL-5 it was 60.3 µM (inactive); with HT-29, 68.1 µM (inactive). Moreover, the GI50 in the test with SK-OV-3 was > 100 µM (inactive); with UACC-257, 41.5 µM (inactive); in the test on MCF7, 36.1 µM (inactive); in the test on TK-10, > 100 µM (inactive); in the test with ACHN it was 72.6 µM (inactive); in the test on SF-295 it was 61.5 µM (inactive).

With `COc1cccc(Nc2nc(C)c([N+](=O)[O-])c(Nc3cccc(OC)c3)n2)c1`, the GI50 is 17.9 µM (inactive) in the test with MDA-N; 4.86 µM (inactive) in the test with RXF 393; 12.4 µM (inactive) with PC-3; 8.18 µM (inactive) in the test with NCI-H522; 9.79 µM (inactive) with DU-145; > 100 µM (inactive) in the test on SW-620. Also, the GI50 with Hs-578T was 50.1 µM (inactive); in the test with SN12C, 54.3 µM (inactive); in the test with M14, 10.4 µM (inactive); with SK-MEL-5, 11.4 µM (inactive); in the test with HT-29, 12.6 µM (inactive); in the test on SK-OV-3 it was > 100 µM (inactive). The GI50 in the test with UACC-257 is 9.57 µM (inactive); in the test with MCF7 it was 2.24 µM (inactive); in the test with TK-10, 16.8 µM (inactive); with ACHN it was 19.4 µM (inactive); in the test with SF-295 it was < 0.01 µM (active); in the test on HL-60, 11.2 µM (inactive).

As for `O=[N+]([O-])c1cccc(-c2ccc([C@H]3CC(c4ccc(Cl)cc4)=NN3)o2)c1`, the GI50 in the test on MDA-N is 24 µM (inactive); with RXF 393 it was 16.8 µM (inactive); in the test on MDA-MB-435 it was 19.2 µM (inactive); in the test on NCI-H522, 21.2 µM (inactive); in the test on DU-145, 15.3 µM (inactive); in the test with CAKI-1 it was 26.1 µM (inactive). The GI50 was 19.5 µM (inactive) in the test on SW-620; 58.9 µM (inactive) in the test on Hs-578T; 16.7 µM (inactive) in the test with SN12C; 30.1 µM (inactive) in the test with M14; 13.8 µM (inactive) in the test with SK-MEL-5; 21.3 µM (inactive) in the test on HT-29. The GI50 was 28.8 µM (inactive) with SK-OV-3; 31.7 µM (inactive) in the test with UACC-257; 16.3 µM (inactive) with MCF7; 19.6 µM (inactive) in the test with TK-10; 17.7 µM (inactive) in the test on ACHN; 44.8 µM (inactive) in the test with SF-295. In the test with HL-60, the GI50 is 0.893 µM (active).
